Article PMC3639963, “A New Class of Small Molecule Inhibitor of BMP Signaling” (PLoS ONE, 2013)

Assays:
Experiment in all cases: DSF thermal shift
Assay type in all cases: binding
Details in all cases: 10 µM inhibitor; read-out: Tm shift
NEK1 = biological target: T1, NEK1 (Homo sapiens, UniProt Q96PY6)
T1 construct: purchased Nanosyn (enzymatic panel); SGC in-house recombinant human kinases (DSF panel); Invitrogen (ALK1-6)
T1 sequence (Q96PY6 1-1258): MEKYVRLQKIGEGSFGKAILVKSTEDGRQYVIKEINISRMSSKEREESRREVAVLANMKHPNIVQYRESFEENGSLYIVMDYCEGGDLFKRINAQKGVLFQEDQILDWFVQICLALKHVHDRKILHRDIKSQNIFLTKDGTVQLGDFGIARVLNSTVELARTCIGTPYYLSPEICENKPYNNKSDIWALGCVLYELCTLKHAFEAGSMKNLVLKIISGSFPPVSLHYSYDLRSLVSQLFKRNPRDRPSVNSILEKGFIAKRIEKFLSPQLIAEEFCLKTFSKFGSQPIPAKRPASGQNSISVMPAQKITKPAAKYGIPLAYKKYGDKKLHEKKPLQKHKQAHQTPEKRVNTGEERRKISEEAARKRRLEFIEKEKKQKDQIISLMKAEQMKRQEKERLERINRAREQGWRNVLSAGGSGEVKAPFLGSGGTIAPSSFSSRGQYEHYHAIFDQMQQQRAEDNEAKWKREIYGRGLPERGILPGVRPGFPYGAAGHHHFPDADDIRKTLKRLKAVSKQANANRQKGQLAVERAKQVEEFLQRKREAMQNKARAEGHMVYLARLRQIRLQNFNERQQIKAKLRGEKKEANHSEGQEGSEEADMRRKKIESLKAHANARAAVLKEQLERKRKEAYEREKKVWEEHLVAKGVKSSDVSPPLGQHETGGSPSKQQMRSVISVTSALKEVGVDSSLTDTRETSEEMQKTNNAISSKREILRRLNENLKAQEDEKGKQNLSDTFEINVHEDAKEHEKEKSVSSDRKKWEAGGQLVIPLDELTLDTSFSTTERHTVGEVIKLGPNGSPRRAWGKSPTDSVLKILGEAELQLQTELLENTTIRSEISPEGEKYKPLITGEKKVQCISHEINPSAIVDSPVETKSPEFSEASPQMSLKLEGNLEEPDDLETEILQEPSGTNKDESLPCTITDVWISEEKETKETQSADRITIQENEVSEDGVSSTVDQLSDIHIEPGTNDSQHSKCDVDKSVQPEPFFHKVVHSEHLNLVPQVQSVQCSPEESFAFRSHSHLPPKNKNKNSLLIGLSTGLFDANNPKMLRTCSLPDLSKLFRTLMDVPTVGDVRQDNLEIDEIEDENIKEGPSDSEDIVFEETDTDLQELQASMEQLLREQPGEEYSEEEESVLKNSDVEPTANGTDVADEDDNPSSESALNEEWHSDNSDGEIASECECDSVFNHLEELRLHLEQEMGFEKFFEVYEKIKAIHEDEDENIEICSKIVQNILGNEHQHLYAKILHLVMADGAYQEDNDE
Description: (§1) Thermal melting experiments were performed using a Real Time PCR machine Mx3005p (Stratagene) with a protein concentration of 1–2 µM and 10 µM inhibitor as described previously, [25]. […] Recombinant human kinases for DSF screening were prepared by SGC using published methods, [36].

OSR1 = biological target: T2, OSR1 (Homo sapiens, UniProt O95747)
T2 construct: purchased Nanosyn (enzymatic panel); SGC in-house recombinant human kinases (DSF panel); Invitrogen (ALK1-6)
T2 sequence (O95747 whole entry): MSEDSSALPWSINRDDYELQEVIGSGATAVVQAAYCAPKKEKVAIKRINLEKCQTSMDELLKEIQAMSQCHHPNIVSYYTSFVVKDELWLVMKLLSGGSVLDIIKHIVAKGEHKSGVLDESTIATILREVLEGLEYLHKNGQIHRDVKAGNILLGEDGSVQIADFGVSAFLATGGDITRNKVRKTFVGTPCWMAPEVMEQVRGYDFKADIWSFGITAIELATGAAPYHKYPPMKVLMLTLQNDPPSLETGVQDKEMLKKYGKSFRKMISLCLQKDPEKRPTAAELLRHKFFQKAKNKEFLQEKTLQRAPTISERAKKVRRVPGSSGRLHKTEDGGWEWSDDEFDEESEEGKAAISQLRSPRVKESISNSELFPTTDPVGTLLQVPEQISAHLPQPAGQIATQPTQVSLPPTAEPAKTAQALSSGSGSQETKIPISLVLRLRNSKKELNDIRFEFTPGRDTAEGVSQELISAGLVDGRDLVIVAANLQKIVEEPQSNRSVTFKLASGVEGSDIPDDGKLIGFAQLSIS
Description: as §1

AMPKα1 = biological target: T3, AMPKα1 (Homo sapiens, UniProt Q13131)
T3 construct: purchased Nanosyn (enzymatic panel); SGC in-house recombinant human kinases (DSF panel); Invitrogen (ALK1-6)
T3 sequence (Q13131 whole entry): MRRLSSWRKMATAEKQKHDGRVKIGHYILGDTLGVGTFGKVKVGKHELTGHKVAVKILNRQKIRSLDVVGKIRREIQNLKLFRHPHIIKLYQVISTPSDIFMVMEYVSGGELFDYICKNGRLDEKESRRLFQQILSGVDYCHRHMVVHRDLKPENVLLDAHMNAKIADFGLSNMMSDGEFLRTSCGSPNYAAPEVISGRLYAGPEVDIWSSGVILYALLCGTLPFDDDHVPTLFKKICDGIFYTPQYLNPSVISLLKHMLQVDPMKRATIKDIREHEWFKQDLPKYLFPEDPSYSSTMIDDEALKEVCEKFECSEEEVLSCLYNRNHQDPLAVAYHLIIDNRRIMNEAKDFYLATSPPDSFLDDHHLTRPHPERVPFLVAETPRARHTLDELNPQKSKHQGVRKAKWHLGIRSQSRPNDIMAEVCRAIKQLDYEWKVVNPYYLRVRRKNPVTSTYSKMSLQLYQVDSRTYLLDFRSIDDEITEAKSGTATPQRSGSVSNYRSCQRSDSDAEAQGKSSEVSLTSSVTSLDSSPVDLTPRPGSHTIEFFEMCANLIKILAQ
T3 sequence (Q9Y478 whole entry partner): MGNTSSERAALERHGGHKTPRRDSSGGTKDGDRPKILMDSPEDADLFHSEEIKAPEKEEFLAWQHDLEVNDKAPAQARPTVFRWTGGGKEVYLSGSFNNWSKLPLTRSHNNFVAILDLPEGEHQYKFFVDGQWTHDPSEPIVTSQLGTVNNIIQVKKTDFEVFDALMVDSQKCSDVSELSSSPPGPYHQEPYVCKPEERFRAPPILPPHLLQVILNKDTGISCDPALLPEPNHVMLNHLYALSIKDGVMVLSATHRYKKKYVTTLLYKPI
T3 sequence (P54619 whole entry partner): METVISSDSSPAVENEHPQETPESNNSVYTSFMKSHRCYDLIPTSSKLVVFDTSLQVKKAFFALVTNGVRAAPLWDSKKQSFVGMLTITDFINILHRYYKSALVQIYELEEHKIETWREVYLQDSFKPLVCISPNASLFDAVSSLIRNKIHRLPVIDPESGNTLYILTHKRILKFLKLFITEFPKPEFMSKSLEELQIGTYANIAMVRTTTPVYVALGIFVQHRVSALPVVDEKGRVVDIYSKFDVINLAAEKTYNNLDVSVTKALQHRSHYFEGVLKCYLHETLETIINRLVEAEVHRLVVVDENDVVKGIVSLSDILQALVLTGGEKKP
Description: as §1

CLK3 = biological target: T4, CLK3 (Homo sapiens, UniProt P49761)
T4 construct: purchased Nanosyn (enzymatic panel); SGC in-house recombinant human kinases (DSF panel); Invitrogen (ALK1-6)
T4 sequence (P49761 whole entry): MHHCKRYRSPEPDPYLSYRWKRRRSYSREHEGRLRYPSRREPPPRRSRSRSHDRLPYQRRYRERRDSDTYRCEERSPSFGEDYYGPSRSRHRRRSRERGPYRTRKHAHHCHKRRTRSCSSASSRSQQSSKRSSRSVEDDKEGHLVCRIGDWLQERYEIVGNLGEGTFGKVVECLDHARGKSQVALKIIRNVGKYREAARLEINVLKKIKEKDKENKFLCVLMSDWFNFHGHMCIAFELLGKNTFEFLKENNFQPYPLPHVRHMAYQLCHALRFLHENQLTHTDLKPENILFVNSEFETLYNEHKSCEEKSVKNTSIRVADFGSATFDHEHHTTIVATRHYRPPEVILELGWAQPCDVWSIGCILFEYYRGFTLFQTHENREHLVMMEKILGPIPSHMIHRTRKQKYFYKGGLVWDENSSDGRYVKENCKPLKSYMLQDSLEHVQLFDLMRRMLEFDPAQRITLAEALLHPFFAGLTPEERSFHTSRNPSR
Description: as §1

NEK11 = biological target: T5, NEK11 (Homo sapiens, UniProt Q8NG66)
T5 construct: purchased Nanosyn (enzymatic panel); SGC in-house recombinant human kinases (DSF panel); Invitrogen (ALK1-6)
T5 sequence (Q8NG66 1-645): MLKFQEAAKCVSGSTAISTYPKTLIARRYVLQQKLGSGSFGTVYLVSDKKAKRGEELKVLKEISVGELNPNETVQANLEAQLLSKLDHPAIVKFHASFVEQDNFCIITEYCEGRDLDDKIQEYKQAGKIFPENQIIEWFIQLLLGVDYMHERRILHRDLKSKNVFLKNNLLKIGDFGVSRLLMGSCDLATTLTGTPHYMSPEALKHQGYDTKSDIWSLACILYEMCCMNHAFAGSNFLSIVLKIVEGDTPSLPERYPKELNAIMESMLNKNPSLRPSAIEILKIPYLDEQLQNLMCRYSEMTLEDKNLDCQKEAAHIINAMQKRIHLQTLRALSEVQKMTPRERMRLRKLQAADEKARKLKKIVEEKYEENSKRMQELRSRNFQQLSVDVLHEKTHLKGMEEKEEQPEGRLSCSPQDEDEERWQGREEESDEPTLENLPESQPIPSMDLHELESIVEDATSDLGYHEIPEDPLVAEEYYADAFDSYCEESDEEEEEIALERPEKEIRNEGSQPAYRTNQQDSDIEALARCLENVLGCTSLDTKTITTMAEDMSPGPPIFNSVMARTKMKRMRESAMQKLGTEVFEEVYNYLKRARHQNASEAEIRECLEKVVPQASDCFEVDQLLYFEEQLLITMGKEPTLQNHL
Description: as §1

AMPKα2 = biological target: T6, AMPKα2 (Homo sapiens, UniProt P54646)
T6 construct: purchased Nanosyn (enzymatic panel); SGC in-house recombinant human kinases (DSF panel); Invitrogen (ALK1-6)
T6 sequence (P54646 whole entry): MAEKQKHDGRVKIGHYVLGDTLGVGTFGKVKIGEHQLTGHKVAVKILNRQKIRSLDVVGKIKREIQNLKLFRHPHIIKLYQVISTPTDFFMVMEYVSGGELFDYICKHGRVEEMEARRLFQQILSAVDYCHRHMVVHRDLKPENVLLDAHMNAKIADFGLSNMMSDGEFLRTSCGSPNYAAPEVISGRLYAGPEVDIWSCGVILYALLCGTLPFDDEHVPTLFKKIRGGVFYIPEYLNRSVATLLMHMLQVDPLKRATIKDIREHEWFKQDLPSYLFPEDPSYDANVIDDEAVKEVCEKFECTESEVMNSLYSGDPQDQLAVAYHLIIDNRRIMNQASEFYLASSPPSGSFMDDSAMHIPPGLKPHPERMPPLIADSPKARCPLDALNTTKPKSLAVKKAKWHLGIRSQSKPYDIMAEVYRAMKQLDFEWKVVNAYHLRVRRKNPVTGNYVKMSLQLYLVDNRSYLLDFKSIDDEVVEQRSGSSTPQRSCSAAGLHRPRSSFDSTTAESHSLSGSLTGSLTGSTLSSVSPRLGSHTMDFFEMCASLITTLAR
Description: as §1

p38δ = biological target: T7, p38δ (Homo sapiens, UniProt O15264)
T7 construct: purchased Nanosyn (enzymatic panel); SGC in-house recombinant human kinases (DSF panel); Invitrogen (ALK1-6)
T7 sequence (O15264 1-365): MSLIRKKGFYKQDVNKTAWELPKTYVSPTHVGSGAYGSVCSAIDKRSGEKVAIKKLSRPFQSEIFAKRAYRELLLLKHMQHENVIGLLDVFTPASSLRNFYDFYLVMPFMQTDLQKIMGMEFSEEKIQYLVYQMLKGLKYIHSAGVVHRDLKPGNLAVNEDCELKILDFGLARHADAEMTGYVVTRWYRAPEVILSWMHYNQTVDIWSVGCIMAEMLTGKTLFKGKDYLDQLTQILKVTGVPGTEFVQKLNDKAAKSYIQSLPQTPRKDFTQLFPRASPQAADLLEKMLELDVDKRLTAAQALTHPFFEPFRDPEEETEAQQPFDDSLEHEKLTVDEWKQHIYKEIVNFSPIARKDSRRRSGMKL
Description: as §1

MRCKβ = biological target: T8, MRCKβ (Homo sapiens, UniProt Q9Y5S2)
T8 construct: purchased Nanosyn (enzymatic panel); SGC in-house recombinant human kinases (DSF panel); Invitrogen (ALK1-6)
T8 sequence (Q9Y5S2 whole entry): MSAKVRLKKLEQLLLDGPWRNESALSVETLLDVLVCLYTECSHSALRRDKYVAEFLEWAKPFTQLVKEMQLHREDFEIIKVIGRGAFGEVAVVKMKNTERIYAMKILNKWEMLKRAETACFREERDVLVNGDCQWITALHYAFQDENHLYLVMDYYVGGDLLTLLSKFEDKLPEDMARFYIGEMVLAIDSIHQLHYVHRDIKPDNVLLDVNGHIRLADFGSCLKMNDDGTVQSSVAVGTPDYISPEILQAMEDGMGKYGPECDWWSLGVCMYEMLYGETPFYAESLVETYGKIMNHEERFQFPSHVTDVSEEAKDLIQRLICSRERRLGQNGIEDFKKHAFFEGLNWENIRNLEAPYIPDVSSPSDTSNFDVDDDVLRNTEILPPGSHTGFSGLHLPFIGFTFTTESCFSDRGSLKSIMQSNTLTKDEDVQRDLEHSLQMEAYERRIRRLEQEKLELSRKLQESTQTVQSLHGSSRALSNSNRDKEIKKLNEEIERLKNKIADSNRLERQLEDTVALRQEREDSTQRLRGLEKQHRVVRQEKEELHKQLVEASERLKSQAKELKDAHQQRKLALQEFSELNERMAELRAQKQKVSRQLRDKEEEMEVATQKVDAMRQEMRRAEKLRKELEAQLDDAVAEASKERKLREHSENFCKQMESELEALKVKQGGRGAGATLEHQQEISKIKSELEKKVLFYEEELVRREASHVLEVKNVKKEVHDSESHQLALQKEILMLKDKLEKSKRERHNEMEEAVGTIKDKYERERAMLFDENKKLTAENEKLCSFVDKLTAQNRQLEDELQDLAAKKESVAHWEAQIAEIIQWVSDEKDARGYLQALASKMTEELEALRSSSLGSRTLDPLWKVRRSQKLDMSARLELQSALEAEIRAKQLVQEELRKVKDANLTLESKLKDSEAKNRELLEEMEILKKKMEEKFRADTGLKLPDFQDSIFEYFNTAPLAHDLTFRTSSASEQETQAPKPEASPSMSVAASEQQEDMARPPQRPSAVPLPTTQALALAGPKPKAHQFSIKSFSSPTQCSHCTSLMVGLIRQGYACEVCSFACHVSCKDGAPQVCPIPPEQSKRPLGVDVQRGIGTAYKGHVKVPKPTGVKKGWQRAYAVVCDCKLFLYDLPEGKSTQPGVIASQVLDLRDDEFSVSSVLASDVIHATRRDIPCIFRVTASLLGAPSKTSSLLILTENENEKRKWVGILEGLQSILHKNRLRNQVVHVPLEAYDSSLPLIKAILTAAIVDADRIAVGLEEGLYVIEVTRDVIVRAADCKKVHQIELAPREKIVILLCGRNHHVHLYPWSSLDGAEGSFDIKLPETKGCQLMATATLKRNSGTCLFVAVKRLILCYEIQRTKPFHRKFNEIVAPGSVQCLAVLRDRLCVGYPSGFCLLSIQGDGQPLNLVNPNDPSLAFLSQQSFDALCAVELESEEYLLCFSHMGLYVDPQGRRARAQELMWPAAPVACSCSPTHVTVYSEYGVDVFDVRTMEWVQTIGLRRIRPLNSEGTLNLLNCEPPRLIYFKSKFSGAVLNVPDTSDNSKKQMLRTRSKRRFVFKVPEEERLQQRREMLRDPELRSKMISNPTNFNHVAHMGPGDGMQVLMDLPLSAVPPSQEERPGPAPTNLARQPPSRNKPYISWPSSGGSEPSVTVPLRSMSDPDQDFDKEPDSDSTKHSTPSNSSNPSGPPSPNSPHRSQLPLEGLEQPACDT
Description: as §1

PIM2 = biological target: T9, PIM2 (Homo sapiens, UniProt Q9P1W9)
T9 construct: purchased Nanosyn (enzymatic panel); SGC in-house recombinant human kinases (DSF panel); Invitrogen (ALK1-6)
T9 sequence (Q9P1W9 whole entry): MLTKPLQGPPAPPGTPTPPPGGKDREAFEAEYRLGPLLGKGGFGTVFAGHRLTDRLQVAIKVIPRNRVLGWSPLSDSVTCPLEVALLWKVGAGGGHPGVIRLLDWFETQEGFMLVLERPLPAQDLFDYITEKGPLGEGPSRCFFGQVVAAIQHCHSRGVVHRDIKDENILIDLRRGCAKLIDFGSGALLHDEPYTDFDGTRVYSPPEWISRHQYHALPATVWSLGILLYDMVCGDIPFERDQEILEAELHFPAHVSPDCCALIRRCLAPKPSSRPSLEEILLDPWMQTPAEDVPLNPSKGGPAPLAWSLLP
Description: as §1

| SMILES | ΔTm at 10 µM (NEK1) | ΔTm at 10 µM (OSR1) | ΔTm at 10 µM (AMPKα1) | ΔTm at 10 µM (CLK3) | ΔTm at 10 µM (NEK11) | ΔTm at 10 µM (AMPKα2) | ΔTm at 10 µM (p38δ) | ΔTm at 10 µM (MRCKβ) | ΔTm at 10 µM (PIM2) |
| --- | --- | --- | --- | --- | --- | --- | --- | --- | --- |
| COc1cc(-c2cc(-c3cccc(O)c3)cnc2N)cc(OC)c1OC [K02288, 3-[6-amino-5-(3,4,5-trimethoxy-phenyl)-pyridin-3-yl]-phenol] | 0.2 °C | 0 °C | 0.2 °C | 0 °C | 0.3 °C | 1.2 °C | -0.2 °C | 0.4 °C | 0.1 °C |
| c1cc(-c2cnn3cc(-c4ccc(OCCN5CCCCC5)cc4)cnc23)ccn1 [Dorsomorphin] | 0.1 °C | 1.6 °C | 3.9 °C | 3.7 °C | 2 °C | 7.1 °C | 0 °C | 0 °C | 0.6 °C |
| c1ccc2c(-c3cnn4cc(-c5ccc(N6CCNCC6)cc5)cnc34)ccnc2c1 [LDN-193189] | 0.2 °C | 0.9 °C | 4.3 °C | 0.7 °C | -0.3 °C | 8.3 °C | -0.4 °C | 0.6 °C | -1.3 °C |
